Experimental data as given in patent US9315493B2, “Phenylpyridine derivative and drug containing same” (KOWA COMPANY, LTD., priority 2011, dated 2016).
pEC50: −log10 of the molar value.

Key:
human PPARγ2 = human PPARγ2 (Homo sapiens (Human), UniProt P37231); assay: PPARγ activation effect, Gal4-PPARγ2 LBD luciferase transfection assay in COS7 cells; assay type: cell-based; details: Gal4-human PPARγ2 LBD chimera, luciferase reporter; for pEC50: 16 hours, rosiglitazone = 100%
Description: The agonistic activity of the compounds of the invention on PPARγ was measured based on the transfection assay using COS7 cells (DS Pharma Biomedical Co., Ltd., Osaka, Japan), which are the cell line derived from the kidney of the African green monkey. COS7 cells were cultured under 5% CO2 concentration, and DMEM medium containing 10% fetal bovine serum, glutamic acid, and antibiotics was used as a medium.
As an expression vector, a chimera in which DNA binding domain of Gal4, which is a yeast transcription factor, and ligand binding domain of human PPARγ2 are fused, i.e., a fused product between the amino acids 1 to 147 of Gal4 transcription factor and the amino acids 182 to 505 of human PPARγ2, was used. Furthermore, as a reporter vector, a firefly luciferase containing five copies of Gal4 recognition sequence in the promoter region was used. Plasmid transfection to the cells was performed according to a method which uses jetPEI (trade name, manufactured by Funakoshi Co., Ltd., Tokyo, Japan). Furthermore, β-galactosidase expression vector was employed as an internal standard.
After the transfection into the cells, the medium was replaced with a DMEM medium (containing 1% serum) added with the test compound, and the cells were further cultured for 16 hours. After that, the luciferase activity and β-galactosidase activity in the cell lysis solution were measured.
Meanwhile, for the present test, dimethylsulfoxide (DMSO) was used for dissolution and dilution of the test compounds, and during the cell treatment, the DMSO concentration in DMEM medium (containing 1% serum) was adjusted to 0.1%. As a positive compound, rosiglitazone (trade name, manufactured by ALEXIS Corporation, Switzerland) was used. The percentage (%) of the luciferase activity of the each test compound (1 to 30 μmol/L) was calculated when the luciferase activity of rosiglitazone (3 to 10 μmol/L) is 100% and the luciferase activity in the absence of the test compound is 0%. The 50% effective concentration of the test compound (EC50, 50% effect concentration) was calculated by using SAS Preclinical Package Ver 5.0 (trade name, manufactured by SAS institute Japan Co., Tokyo, Japan), which is a statistical analysis program.

[1] = biological target: angiotensin II type 1 receptor (Oryctolagus cuniculus (Rabbit), UniProt P34976); assay: Angiotensin II antagonistic activity in isolated rabbit blood vessels (angiotensin II-induced contraction of thoracic aorta ring); details: test compound 0.1 μM, angiotensin II 10 nM-induced contraction, read-out: Rate (%) of inhibiting angiotensin II activity at concentration of 0.1 μM
Sequence of angiotensin II type 1 receptor (P34976 whole entry): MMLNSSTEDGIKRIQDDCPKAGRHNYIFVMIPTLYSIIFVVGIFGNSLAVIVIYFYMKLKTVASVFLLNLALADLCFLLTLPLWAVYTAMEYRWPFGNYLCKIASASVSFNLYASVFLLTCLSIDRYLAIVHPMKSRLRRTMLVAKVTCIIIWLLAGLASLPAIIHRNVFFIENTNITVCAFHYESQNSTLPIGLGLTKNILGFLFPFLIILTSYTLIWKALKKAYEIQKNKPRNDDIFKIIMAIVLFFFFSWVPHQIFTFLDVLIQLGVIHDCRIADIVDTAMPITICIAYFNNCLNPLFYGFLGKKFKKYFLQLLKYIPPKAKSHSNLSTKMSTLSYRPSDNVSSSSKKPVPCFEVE
Description: By using a specimen of isolated rabbit blood vessels, antagonistic activity of the compounds of the invention against angiotensin II type 1 receptor was calculated from a dose-response curve of angiotensin II-induced blood vessel contraction. Specifically, the specimen of thoracic aorta ring of a rabbit (New Zealand White: male, 2.4 to 3.0 kg) was suspended in a rmagnus bath filled with Krebs-Henseleite buffer (composition: 118 mM NaCl, 4.7 mM KCl, 2.55 mM CaCl2, 1.18 mM MgSO4, 1.18 mM KH2PO4, 24.88 mM NaHCO3, and 11.1 mM D-glucose), and angiotensin II (10 n M)-induced contraction was obtained in the presence of each test compound (1 n mol/L to 10 μmol/L). During the measurement, the inside temperature of the magnus bath was maintained at 37° C. and the bath was continuously ventilated with a sufficient amount of mixed gas (95% O2 and 5% CO2). The angiotensin II-induced contraction was converted into a relative value (%) that is based on the angiotensin II (0.1 μM)-induced contraction in the absence of the test compound.

Sequence of human PPARγ2 (P37231 182-505): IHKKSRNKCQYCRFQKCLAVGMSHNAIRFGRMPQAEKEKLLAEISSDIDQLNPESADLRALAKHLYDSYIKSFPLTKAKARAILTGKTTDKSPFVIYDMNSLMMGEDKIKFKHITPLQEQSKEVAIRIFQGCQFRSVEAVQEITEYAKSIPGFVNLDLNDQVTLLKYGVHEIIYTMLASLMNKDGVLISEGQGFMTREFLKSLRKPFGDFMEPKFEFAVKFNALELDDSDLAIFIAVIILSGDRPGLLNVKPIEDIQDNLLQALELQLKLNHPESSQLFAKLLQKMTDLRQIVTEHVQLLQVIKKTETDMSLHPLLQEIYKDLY

Row | SMILES | % MAX vs Rosiglitazone (maximum activity strength relative to the maximum activity of rosiglitazone) (human PPARγ2) [%] | pEC50 (human PPARγ2) | inhibition at 0.1 µM [1] [%]
1 | CCCCCc1nc(C2CC2)n(-c2ncc(OCC)cn2)c(=O)c1Cc1ccc(-c2ccccc2-c2noc(=O)[nH]2)nc1 [Example 43, 3-{2-{5-{[2-cyclopropyl-1-(5-ethoxypyrimidin-2-yl)-6-oxo-4-pentyl-1,6-dihydropyrimidin-5-yl]methyl}pyridin-2-yl}phenyl}-1,2,4-oxadiazol-5(4H)-one] | 42 | 6.23 | 
2 | CCCc1nc(C(C)C)n(-c2ncc(OCC)cn2)c(=O)c1Cc1ccc(-c2ccccc2-c2noc(=O)[nH]2)nc1 [Example 40, 3-{2-{5-{[1-(5-ethoxypyrimidin-2-yl)-2-isopropyl-6-oxo-4-propyl-1,6-dihydropyrimidin-5-yl]methyl}pyridin-2-yl}phenyl}-1,2,4-oxadiazol-5(4H)-one] | 69 | 6.40 | 68.3
3 | CCCCCc1nc(C(C)C)n(-c2ncc(OCC)cn2)c(=O)c1Cc1ccc(-c2ccccc2-c2noc(=O)[nH]2)nc1 [Example 42, 3-{2-{5-{[1-(5-ethoxypyrimidin-2-yl)-2-isopropyl-6-oxo-4-pentyl-1,6-dihydropyrimidin-5-yl]methyl}pyridin-2-yl}phenyl}-1,2,4-oxadiazol-5(4H)-one] | 53 | 6.19 | 
4 | CCCc1nc(C2CC2)n(-c2ncc(OCC)cn2)c(=O)c1Cc1ccc(-c2ccccc2-c2noc(=O)[nH]2)nc1 [Example 41, 3-{2-{5-{[2-cyclopropyl-1-(5-ethoxypyrimidin-2-yl)-6-oxo-4-propyl-1,6-dihydropyrimidin-5-yl]methyl}pyridin-2-yl}phenyl}-1,2,4-oxadiazol-5(4H)-one] | 65 | 6.25 | 89.9
5 | CCCc1nc2c(C)cc(-c3nc4ccccc4n3C)cc2n1Cc1ccc(-c2ccccc2C(=O)O)cc1 [telmisartan, reference compound] |  |  | 85.3
